Values joined by “and” are separate entries in the source; they are usually repeats but may differ in a detail not shown here. Equal entries are not always repeated. Inconclusive results and toxic doses are left out.
Test system: P388 leukemia ip, CD2F1 mice, survival T/C
Assay: NCI In Vivo Anticancer Drug Screen. Data for tumor model P388 Leukemia (intraperitoneal) in CD2F1 (CDF1) mice
Conditions: endpoint: median survival time, higher = longer survival
Procedure, shortened: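 Mice carrying the transplanted tumor received test compound or vehicle. Survival was recorded in each group, and the value is the treated-group measurement divided by that of the vehicle-treated control group.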

[1] = dose: 60.0 mg/kg/injection, schedule: Q01DX005 (ip), vehicle: saline
[2] = dose: 120.0 mg/kg/injection, schedule: Q01DX005 (ip), vehicle: saline
[3] = dose: 60.0 mg/kg/injection, schedule: Q01DX005 (ip), vehicle: Klucel (hydroxypropylcellulose) (HPC)
[4] = dose: 120.0 mg/kg/injection, schedule: Q01DX005 (ip), vehicle: Klucel (hydroxypropylcellulose) (HPC)
[5] = dose: 240.0 mg/kg/injection, schedule: Q01DX005 (ip), vehicle: Klucel (hydroxypropylcellulose) (HPC)
[6] = dose: 50.0 mg/kg/injection, schedule: Q01DX005 (ip), vehicle: saline with Tween-80
[7] = dose: 100.0 mg/kg/injection, schedule: Q01DX005 (ip), vehicle: saline with Tween-80
[8] = dose: 200.0 mg/kg/injection, schedule: Q01DX005 (ip), vehicle: saline with Tween-80
[9] = dose: 12.5 mg/kg/injection, schedule: Q04DX003 (ip), vehicle: saline
[10] = dose: 25.0 mg/kg/injection, schedule: Q04DX003 (ip), vehicle: saline
[11] = dose: 50.0 mg/kg/injection, schedule: Q04DX003 (ip), vehicle: saline
[12] = dose: 50.0 mg/kg/injection, schedule: Q01DX005 (ip), vehicle: Klucel (hydroxypropylcellulose) (HPC)
[13] = dose: 100.0 mg/kg/injection, schedule: Q01DX005 (ip), vehicle: Klucel (hydroxypropylcellulose) (HPC)
[14] = dose: 200.0 mg/kg/injection, schedule: Q01DX005 (ip), vehicle: Klucel (hydroxypropylcellulose) (HPC)

CCCS(=O)(=O)CCC(=O)c1cccs1
T/C (dose: 100.0 mg/kg/injection, schedule: Q04DX002 (ip), vehicle: saline): 104 % of control
T/C (dose: 200.0 mg/kg/injection, schedule: Q04DX002 (ip), vehicle: saline): 100 % of control
T/C (dose: 400.0 mg/kg/injection, schedule: Q04DX002 (ip), vehicle: saline): 101 % of control

CC[Si](C=C1CCCCC1)(CC)CC
T/C (dose: 50.0 mg/kg/injection, schedule: Q01DX009 (ip), vehicle: Klucel (hydroxypropylcellulose) (HPC)): 101 % of control
T/C (dose: 100.0 mg/kg/injection, schedule: Q01DX009 (ip), vehicle: Klucel (hydroxypropylcellulose) (HPC)): 110 % of control
T/C (dose: 200.0 mg/kg/injection, schedule: Q01DX009 (ip), vehicle: Klucel (hydroxypropylcellulose) (HPC)): 109 % of control

Cc1ncoc1C(=O)Nc1ccc([N+](=O)[O-])cc1[N+](=O)[O-]
T/C (dose: 100.0 mg/kg/injection, schedule: Q04DX002 (ip), vehicle: Klucel (hydroxypropylcellulose) (HPC)): 103 % of control
T/C (dose: 200.0 mg/kg/injection, schedule: Q04DX002 (ip), vehicle: Klucel (hydroxypropylcellulose) (HPC)): 100 % of control
T/C (dose: 400.0 mg/kg/injection, schedule: Q04DX002 (ip), vehicle: Klucel (hydroxypropylcellulose) (HPC)): 105 % of control

OCC1(OC2OC(CF)C(O)C(O)C2O)OC(CF)C(O)C1O (stereo unspecified)
T/C [1]: 102 % of control
T/C [2]: 101 % of control

COC1C(O)C(CO)OC1n1ccc(NC(=O)c2ccccc2)nc1=O (stereo unspecified)
T/C [3]: 98 % of control and 93 % of control
T/C [4]: 94 % of control
T/C [5]: 91 % of control and 93 % of control

c1ccc(C2=NN(c3ccccc3)C3C4CCC(C4)C23)cc1 (stereo unspecified)
T/C (dose: 100.0 mg/kg/injection, schedule: Q04DX003 (ip), vehicle: Klucel (hydroxypropylcellulose) (HPC)): 93 % of control
T/C (dose: 200.0 mg/kg/injection, schedule: Q04DX003 (ip), vehicle: Klucel (hydroxypropylcellulose) (HPC)): 93 % of control
T/C (dose: 400.0 mg/kg/injection, schedule: Q04DX003 (ip), vehicle: Klucel (hydroxypropylcellulose) (HPC)): 91 % of control

CCN(CC)Cc1c(C)[nH]c2cc3c(cc2c1=O)CCCC3
T/C [3]: 98 % of control
T/C [4]: 90 % of control

c1ccc(/C(=N\Nc2ccc3ccccc3n2)c2ccccn2)cc1
T/C [6]: 110 % of control
T/C [7]: 94 % of control
T/C [8]: 100 % of control

O=C1OC2C3COC(=O)c4cc(O)c(O)c(O)c4-c4c(cc(O)c(O)c4O)C(=O)OC2C(OC(=O)c2cc(O)c(O)c4c2[C@@H]2C1=CC(=O)[C@](O)(O4)C2(O)O)C(OC(=O)c1cc(O)c(O)c(O)c1)O3 (stereo partly specified)
T/C (dose: 6.25 mg/kg/injection, schedule: Q01DX005 (ip), vehicle: DMSO): 106 % of control
T/C (dose: 12.5 mg/kg/injection, schedule: Q01DX005 (ip), vehicle: DMSO): 106 % of control
T/C (dose: 25.0 mg/kg/injection, schedule: Q01DX005 (ip), vehicle: DMSO): 115 % of control

CCCCCCCCCCCCC1(O)OC(=O)C(C)=C1C (stereo unspecified)
T/C (dose: 12.5 mg/kg/injection, schedule: Q04DX003 (ip), vehicle: saline with Tween-80): 108 % of control
T/C (dose: 25.0 mg/kg/injection, schedule: Q04DX003 (ip), vehicle: saline with Tween-80): 102 % of control
T/C (dose: 50.0 mg/kg/injection, schedule: Q04DX003 (ip), vehicle: saline with Tween-80): 106 % of control

Cc1cc2c3c(cccc3c1)C(=O)c1ccccc1-2
T/C [6]: 102 % of control
T/C [7]: 102 % of control
T/C [8]: 93 % of control

CC1CC2OC(=O)C(CN3CC3)C2CC2(C)C(O)CC(O)C12 (stereo unspecified)
T/C (dose: 25.0 mg/kg/injection, schedule: Q04DX002 (ip), vehicle: saline with Tween-80): 108 % of control and 93 % of control
T/C (dose: 50.0 mg/kg/injection, schedule: Q04DX002 (ip), vehicle: saline with Tween-80): 101 % of control and 113 % of control
T/C (dose: 100.0 mg/kg/injection, schedule: Q04DX002 (ip), vehicle: saline with Tween-80): 102 % of control and 113 % of control

COc1cc2c(OC)c(c1)CCC1=CC(=O)C(=CC1=O)CC2
T/C (dose: 100.0 mg/kg/injection, schedule: Q01DX001 (ip), vehicle: Klucel (hydroxypropylcellulose) (HPC)): 99 % of control
T/C (dose: 200.0 mg/kg/injection, schedule: Q01DX001 (ip), vehicle: Klucel (hydroxypropylcellulose) (HPC)): 96 % of control

CC(=O)OC(C)C1C2=C(C(=O)CC1(C)O)C(=O)c1c(ccc(-c3ccc4c(c3O)C(=O)C3=C(C4=O)C(C(C)OC(C)=O)C(C)(O)CC3=O)c1O)C2=O (stereo unspecified)
T/C (dose: 3.13 mg/kg/injection, schedule: Q01DX009 (ip), vehicle: saline with Tween-80): 122 % of control
T/C (dose: 6.25 mg/kg/injection, schedule: Q01DX009 (ip), vehicle: saline with Tween-80): 119 % of control

CCCc1onc(-c2noc(CCC)c2CC)c1CC
T/C [1]: 100 % of control
T/C [2]: 95 % of control
T/C (dose: 240.0 mg/kg/injection, schedule: Q01DX005 (ip), vehicle: saline): 103 % of control

CC(=O)c1oc(C)nc1C
T/C (dose: 50.0 mg/kg/injection, schedule: Q01DX009 (ip), vehicle: saline): 104 % of control
T/C (dose: 100.0 mg/kg/injection, schedule: Q01DX009 (ip), vehicle: saline): 100 % of control
T/C (dose: 200.0 mg/kg/injection, schedule: Q01DX009 (ip), vehicle: saline): 104 % of control

Cc1ccc(SCC(=O)NCc2cccs2)cc1
T/C [6]: 103 % of control
T/C [7]: 97 % of control
T/C [8]: 93 % of control

CN1CC[N+](C)(Cc2ccc(C[N+]3(C)CC[N+](C)(Cc4ccc(CCl)cc4)CC3)cc2)CC1 (stereo unspecified)
T/C [9]: 112 % of control
T/C [10]: 102 % of control
T/C [11]: 119 % of control

O/N=C1/C(=N/O)N(c2ccccc2)CCN1c1ccccc1
T/C [6]: 99 % of control
T/C [7]: 100 % of control
T/C [8]: 92 % of control

O=[N+]([O-])c1ccc2c(c1)nc(-c1ccccn1)n2CCc1ccncc1
T/C (dose: 25.0 mg/kg/injection, schedule: Q01DX005 (ip), vehicle: Klucel (hydroxypropylcellulose) (HPC)): 95 % of control
T/C [12]: 94 % of control
T/C [13]: 92 % of control
T/C [14]: 91 % of control

Cn1cnc([N+](=O)[O-])c1Sc1ccncc1S(N)(=O)=O
T/C [12]: 118 % of control
T/C [13]: 102 % of control
T/C [14]: 108 % of control

N#Cc1ncc(C[n+]2ccccc2)nc1N
T/C (dose: 10.0 mg/kg/injection, schedule: Q01DX009 (ip), vehicle: saline): 109 % of control
T/C (dose: 20.0 mg/kg/injection, schedule: Q01DX009 (ip), vehicle: saline): 107 % of control
T/C (dose: 40.0 mg/kg/injection, schedule: Q01DX009 (ip), vehicle: saline): 100 % of control

COc1ccc(OC)c(/C=C2/C(=O)ON=C2C)c1
T/C (dose: 60.0 mg/kg/injection, schedule: Q01DX005 (ip), vehicle: saline with Tween-80): 114 % of control
T/C (dose: 120.0 mg/kg/injection, schedule: Q01DX005 (ip), vehicle: saline with Tween-80): 111 % of control

O=c1[nH]c2cc([N+](=O)[O-])ccc2nc1/C=C(\O)c1ccncc1
T/C (dose: 60.0 mg/kg/injection, schedule: Q01DX005 (ip), vehicle: Klucel + Tween-80): 94 % of control
T/C (dose: 120.0 mg/kg/injection, schedule: Q01DX005 (ip), vehicle: Klucel + Tween-80): 88 % of control
T/C (dose: 240.0 mg/kg/injection, schedule: Q01DX005 (ip), vehicle: Klucel + Tween-80): 100 % of control

CCC[CH2][Sn]1([CH2]CCC)[O]C2C(OC)OC3COC(c4ccccc4)OC3C2[O]1 (stereo unspecified)
T/C [9]: 105 % of control
T/C [10]: 110 % of control
T/C [11]: 112 % of control

O=C(O)c1cnc2c(C(F)(F)F)cccc2c1Nc1ccc2c(c1)OCO2
T/C (dose: 7.5 mg/kg/injection, schedule: Q01DX005 (ip), vehicle: Klucel (hydroxypropylcellulose) (HPC)): 92 % of control
T/C (dose: 15.0 mg/kg/injection, schedule: Q01DX005 (ip), vehicle: Klucel (hydroxypropylcellulose) (HPC)): 101 % of control
T/C (dose: 30.0 mg/kg/injection, schedule: Q01DX005 (ip), vehicle: Klucel (hydroxypropylcellulose) (HPC)): 105 % of control
T/C [4]: 101 % of control
T/C [5]: 96 % of control

Reference: PubChem BioAssay AID330 (DTP/NCI, 2004)
